According to patent US8178506B2, “Oligomeric compounds and compositions for use in modulation of small non-coding RNAs” (Regulus Therapeutics Inc., priority 2003, dated 2012):
In the oligonucleotide strings, read from the 5' end, every base follows the letter of its sugar. An asterisk marks phosphorothioate; unmarked linkages are phosphodiester. Other units and linkages are bracketed, terminal groups are in braces. A string of capitals states the bases alone. e = 2'-O-(2-methoxyethyl) (MOE); [5mC] = 5-methylcytosine

Legend:
[1] = test system: PPARγ; assay: PPARγ mRNA expression in adipocytes (real-time PCR); assay type: cell-based, human; details: for PPAR gamma mRNA: differentiating adipocytes transfected with oligomeric compound; for PPAR gamma (mRNA expression): adipocytes, 250 nM oligomeric compound, day nine post-transfection, relative to control (1.0)
[2] = test system: aP2; assay: aP2 mRNA expression in adipocytes (real-time PCR); assay type: cell-based, human; details: for aP2 mRNA: Table 75; for AP2 (mRNA expression): adipocytes, 250 nM oligomeric compound, day nine post-transfection, relative to control (1.0)
[3] = test system: HSL; assay: HSL mRNA expression in adipocytes (real-time PCR); assay type: cell-based, human; details: for HSL mRNA: differentiating adipocytes transfected with oligomeric compound; for HSL (mRNA expression): adipocytes, 250 nM oligomeric compound, day nine post-transfection, relative to control (1.0)
[4] = test system: Glut4; assay: Glut4 mRNA expression in adipocytes (real-time PCR); assay type: cell-based, human; details: for GLUT4 mRNA: differentiating adipocytes transfected with oligomeric compound; for Glut4 (mRNA expression): adipocytes, 250 nM oligomeric compound, day nine post-transfection, relative to control (1.0)
[5] = test system: adipocytes; assay: Triglyceride accumulation assay in adipocytes; assay type: cell-based, human
[6] = test system: HuVECs; assay: Endothelial tube formation assay in HuVECs; details: 75 nM oligomeric compound
[7] = differentiating adipocytes transfected with oligomeric compound
[8] = differentiating adipocytes transfected with oligomeric compound, Table 75
[9] = adipocytes, 250 nM oligomeric compound, relative to control (1.0), Table 15
[10] = adipocytes, 250 nM oligomeric compound, relative to control (1.0), Table 16

327896 (antisense eA*e[5mC]*eA*eG*eT*eT*e[5mC]*eT*eT*e[5mC]*eA*eA*e[5mC]*eT*eG*eG*e[5mC]*eA*eG*e[5mC]*eT*eT) [compound 327896]
PPAR gamma mRNA ([1]; Table 75): 52 percentage of untreated control (UTC)
aP2 mRNA [2, 7]: 43 percentage of untreated control (UTC)
HSL mRNA ([3]; Table 75): 37 percentage of untreated control (UTC)
GLUT4 mRNA ([4]; Table 75): 35 percentage of untreated control (UTC)
TG (triglyceride accumulation) [5, 8]: 22 percentage of untreated control (UTC)
% Activity Relative to UTC (tube formation) ([6]; Table 56): 64.3%

327878 (antisense e[5mC]*eT*eA*eG*eT*eG*eG*eT*e[5mC]*e[5mC]*eT*eA*eA*eA*e[5mC]*eA*eT*eT*eT*e[5mC]*eA*e[5mC]) [compound 327878]
PPAR gamma (mRNA expression) ([1]; Table 15): 0.97
AP2 (mRNA expression) ([2]; Table 15): 0.85
HSL (mRNA expression) ([3]; Table 15): 0.93
Glut4 (mRNA expression) ([4]; Table 15): 0.69
TG (triglyceride accumulation) [5, 9]: 0.65
% Activity Relative to UTC (tube formation) ([6]; Table 56): 57.1%

327907 (antisense eA*eG*e[5mC]*e[5mC]*eT*eA*eT*e[5mC]*e[5mC]*eT*eG*eG*eA*eT*eT*eA*e[5mC]*eT*eT*eG*eA*eA) [compound 327907]
PPAR gamma mRNA ([1]; Table 75): 49 percentage of untreated control (UTC)
aP2 mRNA [2, 7]: 29 percentage of untreated control (UTC)
HSL mRNA ([3]; Table 75): 21 percentage of untreated control (UTC)
GLUT4 mRNA ([4]; Table 75): 6 percentage of untreated control (UTC)
TG (triglyceride accumulation) [5, 8]: 19 percentage of untreated control (UTC)
% Activity Relative to UTC (tube formation) ([6]; Table 57): 62.1%

327905 (antisense e[5mC]*eA*eG*eA*e[5mC]*eT*e[5mC]*e[5mC]*eG*eG*eT*eG*eG*eA*eA*eT*eG*eA*eA*eG*eG*eA) [compound 327905]
PPAR gamma (mRNA expression) ([1]; Table 15): 0.54
PPAR gamma (mRNA expression) ([1]; Table 16): 0.83
AP2 (mRNA expression) ([2]; Table 15): 1.14
AP2 (mRNA expression) ([2]; Table 16): 0.68
HSL (mRNA expression) ([3]; Table 15): 1.11
HSL (mRNA expression) ([3]; Table 16): 0.69
Glut4 (mRNA expression) ([4]; Table 15): 0.84
Glut4 (mRNA expression) ([4]; Table 16): 0.40
TG (triglyceride accumulation) [5, 9]: 0.69
TG (triglyceride accumulation) [5, 10]: 0.58
% Activity Relative to UTC (tube formation) ([6]; Table 57): 48.3%

327919 (antisense eG*eA*eA*eA*e[5mC]*e[5mC]*e[5mC]*eA*eG*e[5mC]*eA*eG*eA*e[5mC]*eA*eA*eT*eG*eT*eA*eG*e[5mC]*eT) [compound 327919]
PPAR gamma (mRNA expression) ([1]; Table 15): 0.52
PPAR gamma (mRNA expression) ([1]; Table 16): 0.57
AP2 (mRNA expression) ([2]; Table 15): 0.79
AP2 (mRNA expression) ([2]; Table 16): 0.48
HSL (mRNA expression) ([3]; Table 15): 0.57
HSL (mRNA expression) ([3]; Table 16): 0.37
Glut4 (mRNA expression) ([4]; Table 15): 0.32
Glut4 (mRNA expression) ([4]; Table 16): 0.18
TG (triglyceride accumulation) [5, 9]: 0.58
TG (triglyceride accumulation) [5, 10]: 0.40
% Activity Relative to UTC (tube formation) ([6]; Table 57): 103.5%

327956 (antisense e[5mC]*eA*e[5mC]*eA*eG*eT*eT*eG*e[5mC]*e[5mC]*eA*eG*e[5mC]*eT*eG*eA*eG*eA*eT*eT*eA) [compound 327956]
PPAR gamma mRNA [1]: 91 percentage of untreated control (UTC)
AP2 mRNA [2, 7]: 102 percentage of untreated control (UTC)
HSL mRNA [3]: 90 percentage of untreated control (UTC)
GLUT4 mRNA [4]: 69 percentage of untreated control (UTC)
TG (triglyceride accumulation) [5, 7]: 80 percentage of untreated control (UTC)
% Activity Relative to UTC (tube formation) ([6]; Table 59): 46.7%

327967 (antisense eA*e[5mC]*eT*eG*eT*eA*e[5mC]*eA*eA*eA*e[5mC]*eT*eA*e[5mC]*eT*eA*e[5mC]*e[5mC]*eT*e[5mC]*eA) [compound 327967]
PPAR gamma (mRNA expression) ([1]; Table 16): 0.89
AP2 (mRNA expression) ([2]; Table 16): 0.86
HSL (mRNA expression) ([3]; Table 16): 0.97
Glut4 (mRNA expression) ([4]; Table 16): 0.56
TG (triglyceride accumulation) [5, 10]: 0.90
% Activity Relative to UTC (tube formation) ([6]; Table 59): 93.3%

327899 (antisense e[5mC]*eA*eG*eT*eG*eA*eA*eT*eT*e[5mC]*eT*eA*e[5mC]*e[5mC]*eA*eG*eT*eG*e[5mC]*e[5mC]*eA*eT*eA) [compound 327899]
PPAR gamma mRNA ([1]; Table 75): 62 percentage of untreated control (UTC)
aP2 mRNA [2, 7]: 47 percentage of untreated control (UTC)
HSL mRNA ([3]; Table 75): 27 percentage of untreated control (UTC)
GLUT4 mRNA ([4]; Table 75): 14 percentage of untreated control (UTC)
TG (triglyceride accumulation) [5, 8]: 25 percentage of untreated control (UTC)
% Activity Relative to UTC (tube formation) ([6]; Table 57): 34.5%
